US9718837B2, “Nitrogen-containing heterocyclic ring substituted dihydroartemisinin derivatives and use thereof” (Shenyang Pharmaceutical University, priority 2013, dated 2017)
Where two headings read alike, the source gives them in different places.

Key:
[1] = tested on: Human Breast Cancer Cells (MCF-7); experiment: Cell growth inhibition by direct cell counting, MCF-7; type: cell-based; settings: read-out: IG50 MCF-7
Description: (§1) Cells were taken out carefully from liquid nitrogen (Frozen pipes), and the cell freezing medium was thawed rapidly in water bath at 37° C. in order to rapidly pass through the temperature range of 0 to 5° C. within which the cell is easily damaged. Cell suspension was sucked with pipette gun and put it into centrifugal tubes under sterile condition, then was centrifuged for 3 min at 1300 r/min. The supernatant was gently discarded, and then added with a fresh medium to pipette and mix the cells. Finally, the cells were transferred into culture flasks, and cultured in a carbon dioxide incubator. The medium was changed once after 24 h.
(§2) After resuscitation, the cells were passed for 2-3 generations till they became stable, then they were used for the experiments. Each passage was based on the standard that all cells were spread over the bottoms of culture flasks.
(§3) Cell suspensions of a certain density (5×10^4 cells/mL) were plated at 24-well plate, 2 mL/well. Different concentration of drugs were added thereto, and incubated or some time. Then, cells were counted under the microscope. The ratio of total number of cells in test group to the total number of cells in control group is the cell growth inhibition rate under the concentration condition. The total number of cells in cell suspension, which were treated by drugs, could be counted by blood count board. Inhibition rate was calculated using the formula: […]
(§4) According to cell growth inhibition rate of each concentration of drugs, half inhibitory concentration could be calculated. (IG50 is the drug concentration, when cell growth inhibition rate was 50%.)
(§5) 7) The Results of the Growth Inhibitory Activity of the Compounds on Human Breast Cancer Cells (MCF-7) and Human Multidrug Resistant Breast Cancer Cells (MCF-7/Adr) were Listed in Table 3.

[2] = tested on: Human Multidrug Resistant Breast Cancer Cells (MCF-7/Adr); experiment: Cell growth inhibition by direct cell counting, MCF-7/Adr; type: cell-based; settings: read-out: IG50 MCF-7/Adr
Description: as §1, §2, §3, §4, §5

[3] = MCF-7/Adr multidrug resistant cells

Molecule | IC50 ([1]; MCF-7 cells) [nM] | IC50 [2, 3] [nM] | IC50 [1] [nM] | IC50 [2] [nM]
C[C@H]1[C@@H](Oc2ccc(/C=C/C(=O)N3CCC(N4CCCCC4)CC3)cc2)O[C@@H]2O[C@@]3(C)CC[C@H]4[C@H](C)CC[C@@H]1[C@@]24OO3 [Example 23] | 586 |  |  | 
C[C@H]1[C@@H](Oc2ccc(CC(=O)N3CCCCC3)cc2)O[C@@H]2O[C@@]3(C)CC[C@H]4[C@H](C)CC[C@@H]1[C@@]24OO3 [Example 35, (10S)—O-{4-[2-(piperidin-1-yl)-2-oxoethyl]phenyl}-dihydroartemisinin] | 1700 | 62.4 |  | 
C[C@H]1[C@@H](Oc2cccc(CN3CCN(c4ccccc4)CC3)c2)O[C@@H]2O[C@@]3(C)CC[C@H]4[C@H](C)CC[C@@H]1[C@@]24OO3 [Example 18, 10-O-[3-[(4-phenylpiperazin-1-yl)methyl]phenyl]-(10S)-dihydroartemisinin] | 690 | 355 |  | 
CC1CCC2C(C)[C@@H](Oc3ccc(/C=C/C(=O)N4CCN(c5cccc(C(F)(F)F)c5)CC4)cc3)OC3OC4(C)CCC1C32OO4 (stereo partly drawn) [Example 28, (10S)—O-{4-[3-oxo-3-(4-(3-trifluoromethylphenyl)piperazin-1-yl)-1-(E)-propen-1-yl]phenyl}-dihydroartemisinin] | 91.1 |  |  | 
CC1CCC2C(C)[C@@H](Oc3ccc(/C=C/C(=O)N4CCOCC4)cc3)OC3OC4(C)CCC1C32OO4 (stereo partly drawn) [Example 21, (10S)—O-{4-[3-oxo-3-(morpholin-4-yl)-1-(E)-propen-1-yl]phenyl}-dihydroartemisinin] | 241 |  |  | 
CC1CCC2C(C)[C@@H](Oc3ccc(/C=C/C(=O)N4CCCCC4)cc3)OC3OC4(C)CCC1C32OO4 (stereo partly drawn) [Example 22, (10S)—O-{4-[3-oxo-3-(piperidin-1-yl)-1-(E)-propen-1-yl]phenyl}-dihydroartemisinin] | 6.07 |  |  | 
CC1CCC2C(C)[C@@H](Oc3ccc(CC(=O)N4CCOCC4)cc3)OC3OC4(C)CCC1C32OO4 (stereo partly drawn) [Example 34, (10S)—O-{4-[2-(morpholin-4-yl)-2-oxoethyl]phenyl}-dihydroartemisinin] | 7580 | 239 |  | 
CC1CCC2C(C)[C@@H](Oc3ccc(/C=C/C(=O)N4CCN(c5ccccn5)CC4)cc3)OC3OC4(C)CCC1C32OO4 (stereo partly drawn) [Example 30, (10S)—O-{4-[3-oxo-3-(4-(2-pyridyl)piperazin-1-yl)-1-(E)-propen-1-yl]phenyl}-dihydroartemisinin] | 263 |  |  | 
COc1ccccc1N1CCN(C(=O)Cc2ccc(O[C@H]3OC4OC5(C)CCC6C(C)CCC(C3C)C46OO5)cc2)CC1 (stereo partly drawn) [Example 41, (10S)—O-{4-[2-[4-(2-methoxyphenyl)piperazin-1-yl]-2-oxoethyl]phenyl}-dihydroartemisinin] | 790 | 29.8 |  | 
C[C@H]1[C@@H](Oc2ccc(CN3CCN(C)CC3)cc2)O[C@@H]2O[C@@]3(C)CC[C@H]4[C@H](C)CC[C@@H]1[C@@]24OO3 [Example 12, (10S)—O-[4-((4-methylpiperazin-1-yl)methyl)phenyl]-dihydroartemisinin] | 1050 | 190 |  | 
CC1CCC2C(C)[C@@H](Oc3ccc(CC(=O)N4CCC(N5CCCCC5)CC4)cc3)OC3OC4(C)CCC1C32OO4 (stereo partly drawn) [Example 39, (10S)—O-{4-[2-[4-(piperidin-1-yl)piperidin-1-yl]-2-oxoethyl]phenyl}-dihydroartemisinin] | 1150 | 22.9 |  | 
CC1CCC2C(C)[C@@H](Oc3ccc(CN4CCN(c5ncccn5)CC4)cc3)OC3OC4(C)CCC1C32OO4 (stereo partly drawn) [Example 15, 10-O-[4-[(4-(2-pyrimidinyl)piperazin-1-yl)methyl]phenyl]-(10S)-dihydroartemisinin] | 443 | 1660 |  | 
CC1CCN(C(=O)Cc2ccc(O[C@H]3OC4OC5(C)CCC6C(C)CCC(C3C)C46OO5)cc2)CC1 (stereo partly drawn) [Example 36, (10S)—O-{4-[2-(4-methylpiperidin-1-yl)-2-oxoethyl]phenyl}-dihydroartemisinin] | 549 | 104 |  | 
CC1CCC2C(C)[C@@H](Oc3ccc(CC(=O)NCc4ccccc4)cc3)OC3OC4(C)CCC1C32OO4 (stereo partly drawn) [Example 48, (10S)—O-[4-[2-(benzylamino)-2-oxoethyl]phenyl]-dihydroartemisinin] | 1400 |  |  | 
CC1CCC2C(C)[C@@H](Oc3cccc(CN4CCN(Cc5ccccc5)CC4)c3)OC3OC4(C)CCC1C32OO4 (stereo partly shown) [Example 19] | 1190 | 1090 |  | 
C[C@H]1[C@@H](Oc2ccc(CN3CCN(c4ccc(F)cc4)CC3)cc2)O[C@@H]2O[C@@]3(C)CC[C@H]4[C@H](C)CC[C@@H]1[C@@]24OO3 [Example 13] | 267 | 330 |  | 

Molecule | IC50 ([1]; MCF-7 cells) [nM] | IC50 [2, 3] [nM] | IC50 [1] [nM] | IC50 [2] [nM]
CC1CCC2C(C)[C@@H](Oc3ccc(/C=C/C(=O)N4CCN(Cc5ccccc5)CC4)cc3)OC3OC4(C)CCC1C32OO4 (stereo partly drawn) [Example 29, (10S)—O-{4-[3-oxo-3-(4-benzylpiperazin-1-yl)-1-(E)-propen-1-yl]phenyl}-dihydroartemisinin] | 15.6 |  |  | 
CC1CCC2C(C)[C@@H](Oc3ccc(CC(=O)N4CCN(C5CCCCC5)CC4)cc3)OC3OC4(C)CCC1C32OO4 (stereo partly drawn) [Example 46, (10S)—O-{4-[2-(4-cyclohexylpiperazin-1-yl)-2-oxoethyl]phenyl}-dihydroartemisinin] | 1120 | 98 |  | 
C[C@H]1[C@@H](Oc2ccc(CN3CCN(c4ccccn4)CC3)cc2)O[C@@H]2O[C@@]3(C)CC[C@H]4[C@H](C)CC[C@@H]1[C@@]24OO3 [Example 14, 10-O-[4-[(4-(2-pyridyl)piperazin-1-yl)methyl]phenyl]-(10S)-dihydroartemisinin] | 1280 | 1380 |  | 
CC1CCC2C(C)[C@@H](Oc3ccc(CC(=O)N4CCN(C)CC4c4ccccc4)cc3)OC3OC4(C)CCC1C32OO4 (stereo partly drawn) [Example 43, (10S)—O-{4-[2-(4-methyl-2-phenylpiperazin-1-yl)-2-oxoethyl]phenyl}-dihydroartemisinin] | 2290 | 1060 |  | 
(10S)—O-{4-[2-[4-(pyrimidin-2-yl)piperazin-1-yl]-2-oxoethyl]phenyl}-dihydroartemisinin [Example 45] | 1490 | 110 |  | 
CC1CCC2C(C)[C@@H](Oc3ccc(CC(=O)N4CCN(c5ccc(F)cc5)CC4)cc3)OC3OC4(C)CCC1C32OO4 (stereo partly drawn) [Example 42, (10S)—O-{4-[2-[4-(4-fluorophenyl)piperazin-1-yl]-2-oxoethyl]phenyl}-dihydroartemisinin] | 1090 | 11.2 |  | 
CC1CCC2C(C)[C@@H](Oc3ccc(Cn4ccnn4)cc3)OC3OC4(C)CCC1C32OO4 (stereo partly drawn) [Example 3, (10S)—O-[4-((1,2,3-triazol-1-yl)methyl)phenyl]-dihydroartemisinin] | 1320 | 718 |  | 
CC1CCC2C(C)[C@@H](Oc3ccc(C=CC(=O)Oc4ccc(/C=C/C(=O)N5CCN(c6ncccn6)CC5)cc4)cc3)OC3OC4(C)CCC1C32OO4 (stereo partly drawn) [Example 32, 4-[(10S)-dihydroartemisinin-10-O-yl]phenyl-acrylic acid-4-[3-oxo-3-(4-(2-pyrimidinyl)piperazin-1-yl)-1-(E)-propen-1-yl]phenyl ester] | 408 |  |  | 
C[C@H]1[C@@H](Oc2ccc(Cn3cncn3)cc2)O[C@@H]2O[C@@]3(C)CC[C@H]4[C@H](C)CC[C@@H]1[C@@]24OO3 [Example 4, (10S)—O-[4-((1,2,4-triazol-1-yl)methyl)phenyl]-dihydroartemisinin] | 1620 | 476 |  | 
CC1CCCCN1C(=O)Cc1ccc(O[C@H]2O[C@@H]3O[C@@]4(C)CC[C@H]5[C@H](C)CC[C@@H]([C@H]2C)[C@@]35OO4)cc1 (stereo partly drawn) [Example 37, (10S)—O-{4-[2-(2-methylpiperidin-1-yl)-2-oxoethyl]phenyl}-dihydroartemisinin] |  |  | 1250 | 
C[C@H]1[C@@H](Oc2ccc(CC(=O)N3CCN(c4ccccc4)CC3)cc2)O[C@@H]2O[C@@]3(C)CC[C@H]4[C@H](C)CC[C@@H]1[C@@]24OO3 [Example 40, (10S)—O-{4-[2-(4-phenylpiperazin-1-yl)-2-oxoethyl]phenyl}-dihydroartemisinin] |  |  | 2660 | 79.1
(10S)—O-{4-[2-[4-(pyridin-2-yl)piperazin-1-yl]-2-oxoethyl]phenyl}-dihydroartemisinin [Example 44] |  |  | 1490 | 180
COc1ccccc1N1CCN(Cc2ccc(O[C@H]3O[C@@H]4O[C@@]5(C)CC[C@H]6[C@H](C)CC[C@@H]([C@H]3C)[C@@]46OO5)cc2)CC1 [Example 11, (10)-O-[4-[(4-(2-methoxyphenyl)piperazin-1-yl)methyl]phenyl](10S)-dihydroartemisinin] | 475 | 456 |  | 
CC1CC(C)CN(C(=O)Cc2ccc(O[C@H]3O[C@@H]4O[C@@]5(C)CC[C@H]6[C@H](C)CC[C@@H]([C@H]3C)[C@@]46OO5)cc2)C1 (stereo partly drawn) [Example 38, (10S)—O-{4-[2-(3,5-dimethylpiperidin-1-yl)-2-oxoethyl]phenyl}-dihydroartemisinin] | 516 | 360 |  | 
COc1ccccc1N1CCN(C(=O)/C=C/c2ccc(O[C@H]3O[C@@H]4O[C@@]5(C)CC[C@H]6[C@H](C)CC[C@@H]([C@H]3C)[C@@]46OO5)cc2)CC1 [Example 27, (10S)—O-{4-[3-oxo-3-(4-(2-methoxyphenyl)piperazin-1-yl)-1-(E)-propen-1-yl]phenyl}-dihydroartemisinin] | 322 |  |  | 
